Here are results for four molecules from PMC7667655, “Targeted Covalent Inhibition of Plasmodium FK506 Binding Protein 35” (ACS Medicinal Chemistry Letters, 2020).

In brackets after ≈: the same amount, converted by molar mass.

For data set [1], the target named is T1, FBD35 (PfFKBP35 binding domain) (Plasmodium falciparum, UniProt Q8I4V8).
T1 construct: FKBP35 Q5 -A128; 6His-SUMO (N, cleaved yes); made in house; host or cells: E. coli BL21 DE3
Kind of data set: Fluorescence polarization competition, FBD35. On the technique in general: In fluorescence polarisation assays a small probe gives low polarisation when free and higher when bound to something large.

A further data set is described as follows: PBS solubility. Conditions: pH 7.4.
Data set [2] addresses T2, nLuc-tagged full length PfFKBP35 (Plasmodium falciparum, UniProt Q8I4V8).
T2 construct: nanoluciferase-tagged (nLuc) full length PfFKBP35 or nLuc-tagged FKBP12; expressed in transfected cells
Briefly: NanoBRET cellular target engagement, nLuc-FKBP35. The class given is cell-based. In general terms: BRET reads energy transfer from a luciferase to a nearby fluorophore.

A short description of data set [3]: Cell viability assay (CellTiter-Glo). The class given is cell-based. Conditions: human; HEK293T, 72 hour treatment; read-out: IC50 cell viability. The procedure:
In 96-well round-bottom plates, sorbitol -synchronized cultures of ring-stage NF54 P. falciparum parasites were established in triplicate and treated with varying concentrations of the inhibitors (25-0.0038 μM) serially diluted in complete medium. Parasite proliferation rates were analyzed after 72 h using the Renilla-Glo Luciferase Assay, and luminescence was measured using the GloMax® Discover Microplate Reader. EC 50 values were obtained from corrected dose-response curves using GraphPad Prism (version 5; GraphPad Software). Data represent the mean % luminescence relative to 5% DMSO-treated (vehicle, 100% growth) and 100 nM chloroquine-treated (no growth) controls.
In black, clear-bottom 96-well plates (No. 3904 Corning Life Sciences), HEK293T cells were plated at 2x10^5 cells/mL in DMEM high glucose, pyruvate media (ThermoFisher Scientific, cat. 11995073) supplemented with 10% FBS and 1% pen -strep (100 μL final volume). Cells were incubated overnight at 37°C, 5% CO2. Using a Tecan D300e digital dispenser, cells were dosed in triplicate […]
concentration, 100 mM stock in DMSO) and Carfilzomib (10 µM to 4.6 nM final concentration, 10 mM stock in DMSO) normalizing DMSO to 0.25%. Cells were then incubated at 37 °C, 5% CO2 for 72 hours. Following incubation, cells were treated with 70 µL CellTiter-Glo® Luminescent Cell Viability Assay Reagent (Promega, cat. G7570) and incubated in the dark at room temperature for 30 minutes. Plates were read using an EnVision Multimode Plate Reader (PerkinElmer). Cell viability data was normalized to DMSO controls and analyzed in GraphPad Prism 8 by fitting the data to “[Inhibitor] vs. normalized response – variable slope” model to obtain the curves.
Each compound was prepared in duplicate at 1 µM final concentration (0.2% DMSO) in human or mouse plasma (Aldrich). […]
After quenching, samples were centrifuged to pellet precipitated partic ulates and an aliquot of supernatant was diluted 1:1 with water. The resulting solution was analyzed by UPLC -MS/MS with compounds detected by MRM detection on a triple quadrupole mass spectrometer. […]

T1 sequence (Q8I4V8 5-128): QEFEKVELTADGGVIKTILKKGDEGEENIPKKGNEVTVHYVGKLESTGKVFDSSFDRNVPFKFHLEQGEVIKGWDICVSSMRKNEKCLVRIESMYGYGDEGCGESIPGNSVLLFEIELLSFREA
T2 sequence (Q8I4V8 whole entry): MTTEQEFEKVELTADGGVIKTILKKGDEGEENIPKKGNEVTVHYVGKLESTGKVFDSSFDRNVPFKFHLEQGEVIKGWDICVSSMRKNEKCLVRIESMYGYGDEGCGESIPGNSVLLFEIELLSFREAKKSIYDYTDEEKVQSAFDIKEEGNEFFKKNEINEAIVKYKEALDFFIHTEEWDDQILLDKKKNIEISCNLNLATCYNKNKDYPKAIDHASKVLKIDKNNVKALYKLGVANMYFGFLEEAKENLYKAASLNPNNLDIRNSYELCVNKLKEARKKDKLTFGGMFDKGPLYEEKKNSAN

Usually IC50 stands for the concentration that gives 50% inhibition. Usually solubility stands for the concentration that dissolves in the medium under given conditions. Low readings indicate a poorly soluble substance, high ones a readily soluble substance. Regarding `C=CC(=O)Nc1cccc([C@@H](CCc2ccc(OC)c(OC)c2)OC(=O)[C@@H]2CCCCN2C(=O)C(=O)C(C)(C)CC)c1` [1a], the results for the IC50 in data set [1] and in data set [2] were 206 nM and 1230 nM, respectively. In “PBS solubility”, this molecule returned a solubility of 0.31 µM (≈ 0.179 µg/mL).
Take `CCC(=O)Nc1cccc([C@@H](CCc2ccc(OC)c(OC)c2)OC(=O)[C@@H]2CCCCN2C(=O)C(=O)C(C)(C)CC)c1` [1b]: the IC50 in data set [1] is 76 nM; in data set [2], 876 nM.
In data set [1], `C=CC(=O)Nc1ccccc1[C@@H](CCc1ccc(OC)c(OC)c1)OC(=O)[C@@H]1CCCCN1C(=O)C(=O)C(C)(C)CC` [1c] showed an IC50 of 2850 nM. The “fold weaker binding by FP” value in data set [1] (acrylamide moved to ortho position, compared with 1a) is over 10 fold. The molecule further yielded a solubility in the data set “PBS solubility” of 3.5 µM (≈ 2.03 µg/mL). Also, the half-inhibitory concentration (IC50) at 72 h in data set [3] stood at 75000 nM.
`C=CC(=O)OCC(C)(C)C(=O)C(=O)N1CCCC[C@H]1C(=O)O[C@H](CCc1ccc(OC)c(OC)c1)c1ccccc1` [2c]: the values for the half-maximal inhibitory concentration (IC50) in data set [1] and in data set [2] were 559 nM and 854 nM, respectively. Further, the solubility in “PBS solubility” is under 0.1 µM.
